Results: patent US12336982B2 (RODEO THERAPEUTICS CORPORATION, priority 2018, dated 2025)
pIC50: −log10 of the molar value.

Target: T1, recombinant 15-PGDH (Homo sapiens, UniProt P15428)
T1 sequence (P15428 1-266): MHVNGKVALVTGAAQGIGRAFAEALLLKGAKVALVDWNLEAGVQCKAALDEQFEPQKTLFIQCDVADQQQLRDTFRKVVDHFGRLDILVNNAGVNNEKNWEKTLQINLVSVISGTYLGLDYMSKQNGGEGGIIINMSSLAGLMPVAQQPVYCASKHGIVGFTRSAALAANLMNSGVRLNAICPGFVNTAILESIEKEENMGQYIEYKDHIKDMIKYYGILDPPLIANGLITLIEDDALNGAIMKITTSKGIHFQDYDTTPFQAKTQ
Type: biochemical
Conditions: recombinant human 15-PGDH, in vitro; read-out: PDGH Assay-IC50
From the text: The Recombinant 15-PGDH is human unless otherwise specified.

pIC50 | SMILES
> 8.60 | COCC[S+]([O-])c1sc2nc(-c3cnc4nnn(C)c4c3)cc(C3CCC3)c2c1N (stereo not drawn) [Example 368]
> 8.60 | Nc1c([S+]([O-])C2CCC2)sc2nc(-c3cncnc3)cc(-c3cccnc3)c12 (stereo not drawn) [Example 84]
> 8.60 | Nc1c([S+]([O-])C2CCC2)sc2nc(-c3cncnc3)cc(-c3cc[nH]n3)c12 (stereo not drawn) [Example 307]
> 8.60 | COCCC[S+]([O-])c1sc2nc(-c3cnc4nn(C)cc4c3)cc(C(F)(F)F)c2c1N (stereo not drawn) [Example 420]
> 8.60 | CNc1ncc(-c2cc(-c3ccn(C)n3)c3c(N)c([S+]([O-])CCOC)sc3n2)cn1 (stereo not drawn) [Example 339]
≤ 8.00 | COCCC[S@+]([O-])c1sc2nc(-c3cccnc3)cc(C(F)(F)F)c2c1N [Example 79]
> 8.60 | COCC[S+]([O-])c1sc2nc(-c3cccnc3)nc(C3CC3)c2c1N (stereo not drawn) [Example 190]
≤ 8.00 | COCC[S@+]([O-])c1sc2nc(-c3cnc4ncn(C)c4c3)cc(C3CC3)c2c1N [Example 406]
> 8.60 | COCC[S+]([O-])c1sc2nc(-c3cncnc3)cc(C)c2c1N (stereo not drawn) [Example 173]
> 8.60 | COCC[S@@+]([O-])c1sc2nc(-c3cccnc3)cc(C(F)(F)F)c2c1N [Example 80]
> 8.60 | Nc1c([S+]([O-])C2CCC2)sc2nc(-c3cncnc3)cc(-c3ccon3)c12 (stereo not drawn) [Example 308]
> 8.60 | COCC[S+]([O-])c1sc2nc(-c3ccc4[nH]nnc4c3)cc(-c3ccnn3C)c2c1N (stereo not drawn) [Example 214]
> 8.60 | COCC[S+]([O-])c1sc2nc(-c3cncnc3)cc(-c3ccccc3)c2c1N (stereo not drawn) [Example 72]
> 8.60 | COCCC[S@@+]([O-])c1sc2nc(-c3cncnc3)cc(-c3ccncn3)c2c1N [Example 238]
> 8.60 | COCC[S+]([O-])c1sc2nc(-c3cnc4ncn(C)c4c3)cc(-c3ccccc3)c2c1N (stereo not drawn) [Example 361]
> 8.60 | COCCC[S+]([O-])c1sc2nc(-c3cncnc3)cc(C3CCC3)c2c1N (stereo not drawn) [Example 254]
> 8.60 | COCC[S+]([O-])c1sc2nc(-c3cnc4nn(C)cc4c3)cc(C3CC3)c2c1N (stereo not drawn) [Example 176]
> 8.60 | COCC[S@@+]([O-])c1sc2nc(-c3cnc4ncn(C)c4c3)cc(-c3ccccc3)c2c1N [Example 362]
> 8.60 | COCCC[S@+]([O-])c1sc2nc(-c3cncnc3)cc(-c3cnccn3)c2c1N [Example 235]
> 8.60 | COCC[S+]([O-])c1sc2nc(-c3cnc(N)nc3)cc(C3CC3)c2c1N (stereo not drawn) [Example 110]
> 8.60 | COCC[S@@+]([O-])c1sc2nc(-c3cnc4nn(C)cc4c3)cc(-c3ccn(C)n3)c2c1N [Example 343]

pIC50 | SMILES
> 8.60 | COCC[S+]([O-])c1sc2nc(-c3cncnc3)cc(-c3ccon3)c2c1N (stereo not drawn) [Example 352]
> 8.60 | COCCC[S+]([O-])c1sc2nc(-c3cncnc3)cc(C3CC3)c2c1N (stereo not drawn) [Example 106]
≤ 8.00 | Cn1cnc(-c2cc(-c3cncnc3)nc3sc([S@@+]([O-])C4CCC4)c(N)c23)c1 [Example 65]
8.00 to 8.60 | COCCC[S+]([O-])c1sc2nc(-c3cnc4c(cnn4CCO)c3)cc(-c3ccccc3)c2c1N (stereo not drawn) [Example 301]
> 8.60 | COCCC[S@@+]([O-])c1sc2nc(-c3cnc(N)nc3)cc(-c3ccc(F)cc3)c2c1N [Example 62]
8.00 to 8.60 | COCCC[S+]([O-])c1sc2nc(-c3cnc4c(cnn4C)c3)cc(C3CC3)c2c1N (stereo not drawn) [Example 172]
> 8.60 | COCC[S@@+]([O-])c1sc2nc(-c3cnc(N)nc3)cc(C3CC3)c2c1N [Example 150]
> 8.60 | COCCC[S+]([O-])c1sc2nc(-c3cnn(CCO)c3)cc(-c3ccccc3)c2c1N (stereo not drawn) [Example 274]
8.00 to 8.60 | COCCC[S+]([O-])c1sc2nc(-c3cncnc3)cc(-c3ccnnc3)c2c1N (stereo not drawn) [Example 240]
≤ 8.00 | COCC[S@+]([O-])c1sc2nc(-c3cnc4nn(C)cc4c3)cc(-c3ccn(C)n3)c2c1N [Example 344]
> 8.60 | Nc1c([S+]([O-])C2CCC2)sc2nc(-c3cnc(NCCO)nc3)cc(-c3ccon3)c12 (stereo not drawn) [Example 351]
> 8.60 | COCCC[S+]([O-])c1sc2nc(-c3cncnc3)cc(-c3cnccn3)c2c1N (stereo not drawn) [Example 233]
> 8.60 | COCC[S@@+]([O-])c1sc2nc(-c3cnn(C)c3)cc(C3CC3)c2c1N [Example 275]
> 8.60 | CNc1ncc(-c2cc(-c3ccnn3C)c3c(N)c([S@+]([O-])CCOC)sc3n2)cn1 [Example 331]
> 8.60 | Cc1cc(-c2cncnc2)nc2sc([S+]([O-])C3CCC3)c(N)c12 (stereo not drawn) [Example 164]
> 8.60 | COCC[S+]([O-])c1sc2nc(-c3cnc(N)nc3)nc(-c3ccccc3)c2c1N (stereo not drawn) [Example 430]
> 8.60 | Nc1c([S@+]([O-])C2CCC2)sc2nc(-c3cncnc3)cc(-c3ccon3)c12 [Example 309]
≤ 8.00 | COCC[S@+]([O-])c1sc2nc(-c3cnc4nn(C)cc4c3)cc(C(F)(F)F)c2c1N [Example 419]
≤ 8.00 | COCC[S@+]([O-])c1sc2nc(-c3cccnc3)cc(C(F)(F)F)c2c1N [Example 81]
≤ 8.00 | COCCC[S@+]([O-])c1sc2nc(-c3cncnc3)cc(C(F)(F)F)c2c1N [Example 201]
> 8.60 | COCC[S+]([O-])c1sc2nc(-c3cnc(NCCO)nc3)cc(-c3ccccc3)c2c1N (stereo not drawn) [Example 126]

Second part, the molecule before the results:

SMILES | pIC50
Nc1c([S+]([O-])C2CCC2)sc2nc(-c3cnc(NCCN4CCS(=O)(=O)CC4)nc3)cc(-c3ccccc3)c12 (stereo not drawn) [Example 142] | > 8.60
Nc1c([S@@+]([O-])C2CCC2)sc2nc(-c3cnc(NCCO)nc3)cc(-c3cccnc3)c12 [Example 104] | ≤ 8.00
Nc1c([S+]([O-])C2CCC2)sc2nc(-c3cnc(NCCO)nc3)cc(-c3ccccn3)c12 (stereo not drawn) [Example 82] | > 8.60
CN(C)CCOc1ccc(-c2cc(-c3ccccc3)c3c(N)c([S+]([O-])C4CCC4)sc3n2)cn1 (stereo not drawn) [Example 60] | 8.00 to 8.60
COCCC[S@@+]([O-])c1sc2nc(-c3cnc4nn(C)cc4c3)cc(C3CCC3)c2c1N [Example 261] | > 8.60
Nc1c([S+]([O-])C2CCC2)sc2nc(-c3cnc(NCCO)nc3)cc(-c3cccc(C(F)(F)F)c3)c12 (stereo not drawn) [Example 168] | 8.00 to 8.60
Cn1nccc1-c1cc(-c2cnn3ccnc3c2)nc2sc([S+]([O-])C3CCC3)c(N)c12 (stereo not drawn) [Example 319] | > 8.60
Nc1c([S+]([O-])C2CCC2)sc2nc(-c3cnc(NCCO)nc3)cc(-c3ccc(Cl)cc3)c12 (stereo not drawn) [Example 159] | > 8.60
Cn1cc(-c2cc(-c3cnc4nn(C)cc4c3)nc3sc([S+]([O-])C4CCC4)c(N)c23)cn1 (stereo not drawn) [Example 279] | 8.00 to 8.60
Nc1c([S+]([O-])C2CCC2)sc2nc(-c3cnc(CO)nc3)cc(-c3ccccc3)c12 (stereo not drawn) [Example 221] | > 8.60
Cn1cc(-c2cc(-c3cnc(N)nc3)nc3sc([S+]([O-])C4CCC4)c(N)c23)cn1 (stereo not drawn) [Example 169] | > 8.60
CS(=O)(=O)Nc1ncc(-c2cc(-c3ccccc3)c3c(N)c([S@+]([O-])C4CCC4)sc3n2)cn1 [Example 68] | > 8.60
Cc1cn(C)nc1-c1cc(-c2cnc(N)nc2)nc2sc([S+]([O-])C3CCC3)c(N)c12 (stereo not drawn) [Example 357] | > 8.60
COC(=O)Nc1ncc(-c2cc(-c3ccccn3)c3c(N)c([S+]([O-])C4CCC4)sc3n2)cn1 (stereo not drawn) [Example 113] | 8.00 to 8.60
Nc1c([S@+]([O-])C2CCC2)sc2nc(-c3cnc4ncnn4c3)cc(-c3ccccc3)c12 [Example 402] | > 8.60
Cn1cc2cc(-c3cc(C(F)(F)F)c4c(N)c([S+]([O-])C5CCC5)sc4n3)cnc2n1 (stereo not drawn) [Example 421] | > 8.60
Cn1cc(-c2cc(-c3cccnc3)c3c(N)c([S+]([O-])C4CCC4)sc3n2)ccc1=O (stereo not drawn) [Example 89] | > 8.60

SMILES | pIC50
COCCC[S+]([O-])c1sc2nc(-c3cnc4nn(C)cc4c3)cc(C3CCC3)c2c1N (stereo not drawn) [Example 260] | > 8.60
CN(C)CCNc1ncc(-c2cc(-c3ccccc3)c3c(N)c([S+]([O-])C4CCC4)sc3n2)cn1 (stereo not drawn) [Example 45] | ≤ 8.00
Nc1c([S+]([O-])C2CCC2)sc2nc(-c3cnc(NCCO)nc3)cc(-c3ccc(C(F)(F)F)cc3)c12 (stereo not drawn) [Example 160] | 8.00 to 8.60
Nc1c([S@@+]([O-])C2CCC2)sc2nc(-c3cnc(NCCO)nc3)cc(-c3ccccc3)c12 [Example 52] | ≤ 8.00
Nc1c([S+]([O-])C2CCC2)sc2nc(-c3cnc(NCCO)nc3)cc(-c3cccc(F)c3)c12 (stereo not drawn) [Example 157] | > 8.60
Nc1c([S+]([O-])C2CCC2)sc2nc(-c3cnc(NCCO)nc3)cc(-c3ccc(F)cn3)c12 (stereo not drawn) [Example 118] | 8.00 to 8.60
Cn1cc(-c2cc(C(F)(F)F)c3c(N)c([S+]([O-])C4CCC4)sc3n2)cn1 (stereo not drawn) [Example 428] | > 8.60
Cn1ccc(-c2cc(-c3cnc(NCCO)nc3)nc3sc([S+]([O-])C4CCC4)c(N)c23)n1 (stereo not drawn) [Example 340] | > 8.60
Nc1ncc(-c2cc(-c3ncccn3)c3c(N)c([S+]([O-])C4CCC4)sc3n2)cn1 (stereo not drawn) [Example 328] | > 8.60
CN(CCO)c1ncc(-c2cc(-c3ccccc3)c3c(N)c([S+]([O-])C4CCC4)sc3n2)cn1 (stereo not drawn) [Example 144] | > 8.60
Nc1ncc(-c2cc(-c3ncccc3F)c3c(N)c([S+]([O-])C4CCC4)sc3n2)cn1 (stereo not drawn) [Example 77] | > 8.60
Cn1nccc1-c1cc(-c2cnc(O)nc2)nc2sc([S@+]([O-])C3CCC3)c(N)c12 [Example 224] | > 8.60
Nc1c([S@+]([O-])C2CCC2)sc2nc(-c3cnc(NCCO)nc3)cc(C(F)(F)F)c12 [Example 205] | > 8.60
Cn1nccc1-c1cc(-c2cnc3ncn(C)c3c2)nc2sc([S@@+]([O-])C3CCC3)c(N)c12 [Example 372] | ≤ 8.00
Nc1c([S+]([O-])C2CCC2)sc2nc(-c3cccnc3)cc(C3CCOCC3)c12 (stereo not drawn) [Example 43] | > 8.60
Nc1c([S+]([O-])C2CCC2)sc2nc(-c3cnc(NCCO)nc3)cc(-c3ccccc3)c12 (stereo not drawn) [Example 44] | > 8.60
